Laboratory results reported in patent publication US8618107B2 (Gilead Connecticut, Inc., priority 2010, dated 2013).

Assays:
[1] = tested on: CD86 surface expression on CD19+/7AAD- mouse splenocytes stimulated with IgM; test: CD86 Inhibition Assay; assay type: cell-based; details: Splenocyte; total mouse splenocytes (Balb/c), IgM stimulation 24 hr
Experimental: Following the 24 hr incubation, cells are transferred to conical bottom clear 96-well plates and pelleted by centrifugation at 1200×g×5 min. […] Cells are sorted on a BD FACSCalibur and gated on the CD19^+/7AAD^− population. The levels of CD86 surface expression on the gated population is measured versus test compound concentration.

[2] = tested on: CD69 on CD20 positive cells in human whole blood stimulated by anti-IgM; test: CD69 Whole Blood Assay; assay type: cell-based; details: anti-human IgM stimulation, 20 hours
Experimental: Human blood is obtained from healthy volunteers, with the following restrictions: 1 week drug-free, non-smokers. Blood (approximately 20 mls to test 8 compounds) is collected by venipuncture into Vacutainer® (Becton, Dickinson and Co.) tubes with sodium heparin.
Solutions of Formula I compounds at 10 mM in DMSO are diluted 1:10 in 100% DMSO, then are diluted by three-fold serial dilutions in 100% DMSO for a ten point dose-response curve. The compounds are further diluted 1:10 in PBS and then an aliquot of 5.5 μl of each compound is added in duplicate to a 2 ml 96-well plate; 5.5 μl of 10% DMSO in PBS is added as control and no-stimulus wells. Human whole blood—HWB (100 μl) is added to each well. After mixing the plates are incubated at 37° C., 5% CO2, 100% humidity for 30 minutes. Goat F(ab′)2 anti-human IgM (10 μl of a 500 μg/ml solution, 50 μg/ml final) is added to each well (except the no-stimulus wells) with mixing and the plates are incubated for an additional 20 hours. At the end of the 20 hour incubation, samples are incubated with fluorescent labeled antibodies for 30 minutes, at 37° C., 5% CO2, 100% humidity. Include induced control, unstained and single stains for compensation adjustments and initial voltage settings. Samples are then lysed with PharM Lyse™ (BD Biosciences Pharmingen) according to the manufacturer's instructions. Samples are then transferred to a 96 well plate suitable to be run on the BD Biosciences HTS 96 well system on the LSRII machine. Data acquired and Mean Fluorescence Intensity values were obtained using BD Biosciences DIVA Software. Results are initially analyzed by FACS analysis software (Flow Jo). […] The IC50 values are calculated by Prism version 5, using a nonlinear regression curve fit.

| Compound | EC50 [1] | IC50 [2] |
| --- | --- | --- |
| CN1CCN(c2ccc(Nc3cc(-c4cc(F)cc(N5CCn6c(cc7c6CCCC7)C5=O)c4CO)cn(C)c3=O)nc2)CC1 [Example 197, 2-(5-fluoro-2-(hydroxymethyl)-3-(1-methyl-5-(5-(4-methylpiperazin-1-yl)pyridin-2-ylamino)-6-oxo-1,6-dihydropyridin-3-yl)phenyl)-3,4,6,7,8,9-hexahydropyrazino[1,2-a]indol-1(2H)-one] | 22 nM | 23 nM |
| CN1CCCC1c1ccc(Nc2cc(-c3cc(F)cc(N4CCc5c(sc6c5CCCC6)C4=O)c3CO)cn(C)c2=O)nc1 (stereo in doubt) [Example 313, 5-[5-Fluoro-2-(hydroxymethyl)-3-(1-methyl-5-{[5-(2S)-(1-methylpyrrolidin-2-yl)pyridine-2-yl]amino}-6-oxo-1,6-dihydropyridin-3-yl)phenyl]-8-thia-5-azatricyclo[7.4.0.0^2,7]trideca-1(9),2(7)-dien-6-one] | 6 nM | 44 nM |
